In the experiment the test system is 292921-168-R-J2-PDC KRAS tumor spheroid viability. As to the kind of experiment: Anticancer human tumor 292921-168-R-J2-PDC patient-derived pancreatic carcinoma cell line growth inhibition [KRAS2]. The settings on record: spheroids with HUVEC and MSC; for viability, T/C: stronger effect = lower value. The method in brief: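 Combination screen of spheroid viability in tumor-cell co-cultures with endothelial (HUVEC) and mesenchymal stem cell stroma. Each agent was tested in half-log dilutions, topping at clinical Cmax or at 10 microM without a known Cmax.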

[1] abbreviates: curve of first compound, second compound 0.1 µM.
Setting [2] is: curve of first compound, second compound 0.316 µM.
Setting [3] is: curve of first compound, second compound 1 µM.
Where [4] appears, read: curve of first compound, second compound 3.16 µM.
[5] abbreviates: curve of first compound, second compound 10 µM.
Where [6] appears, read: second compound 0.1 µM, first compound 0.01 µM.
The mark [7] stands for this setting: second compound 0.1 µM, first compound 0.0316 µM.
[8] abbreviates: second compound 0.316 µM, first compound 0.01 µM.
The mark [9] stands for this setting: second compound 0.316 µM, first compound 0.0316 µM.
[10] abbreviates: second compound 1 µM, first compound 0.01 µM.
[11] abbreviates: second compound 1 µM, first compound 0.0316 µM.
The mark [12] stands for this setting: second compound 3.16 µM, first compound 0.01 µM.
The mark [13] stands for this setting: second compound 3.16 µM, first compound 0.0316 µM.
[14] abbreviates: second compound 10 µM, first compound 0.01 µM.
Setting [15] is: second compound 10 µM, first compound 0.0316 µM.

Our source for the IC50 and viability, T/C values is PubChem BioAssay AID1963870 (Molecular Pharmacology Branch, DTP, NCI, 2024).
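Further: drug exposure lasted seven days after spheroids formed for three days.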
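Wherever viability, T/C is given: percent of DMSO vehicle control viability which is 100%.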

The IC50 is the concentration that gives 50% inhibition. One may read the viability, T/C as the ratio of treated to control. For the compound `CC(=O)Nc1cccc(-n2c(=O)n(C3CC3)c(=O)c3c(Nc4ccc(I)cc4F)n(C)c(=O)c(C)c32)c1` + COc1cc2nc(C)nc(NC(C)c3cc(N)cc(C(F)(F)F)c3)c2cc1OC1CCOC1, the IC50 by setting is: under setting [1], 0.23 nM; under setting [2], 0.165 nM; under setting [3], 0.119 nM; under setting [4], 0.105 nM; under setting [5], below 0.1 nM. In addition, the viability, T/C (second compound 0.1 µM, first compound 0.0001 µM) is 72.3%; the viability, T/C (second compound 0.1 µM, first compound 0.000316 µM) was 40.4%; the viability, T/C (second compound 0.1 µM, first compound 0.001 µM) was 25.4%; the viability, T/C (second compound 0.1 µM, first compound 0.00316 µM) is 16.1%; the viability, T/C under setting [6] is 11.3%; the viability, T/C under setting [7] was 8.07%. For the same compound, the viability, T/C (second compound 0.316 µM, first compound 0.0001 µM) is 57.4%; the viability, T/C (second compound 0.316 µM, first compound 0.000316 µM) was 40.9%; the viability, T/C (second compound 0.316 µM, first compound 0.001 µM) is 22%; the viability, T/C (second compound 0.316 µM, first compound 0.00316 µM) was 15.7%; the viability, T/C under setting [8] was 12%; the viability, T/C under setting [9] is 8.27%. Also, the viability, T/C is 53.6% (second compound 1 µM, first compound 0.0001 µM); 31.5% (second compound 1 µM, first compound 0.000316 µM); 20.9% (second compound 1 µM, first compound 0.001 µM); 13.8% (second compound 1 µM, first compound 0.00316 µM); 11.5% under setting [10]; 8.01% under setting [11]. Further, the viability, T/C by setting is: (second compound 3.16 µM, first compound 0.0001 µM) 51.5%; (second compound 3.16 µM, first compound 0.000316 µM) 29.2%; (second compound 3.16 µM, first compound 0.001 µM) 19.1%; (second compound 3.16 µM, first compound 0.00316 µM) 12.4%; under setting [12], 10.3%; under setting [13], 8.26%. Also, the viability, T/C (second compound 10 µM, first compound 0.0001 µM) is 18.4%; the viability, T/C (second compound 10 µM, first compound 0.000316 µM) was 14.6%; the viability, T/C (second compound 10 µM, first compound 0.001 µM) is 15%; the viability, T/C (second compound 10 µM, first compound 0.00316 µM) was 11.9%; the viability, T/C under setting [14] is 8.42%; the viability, T/C under setting [15] was 8.34%.
For `CC1COCCN1c1cc(-c2ccnn2C)c2ccnc(-c3ccn[nH]3)c2n1` (stereo unspecified) + CNCc1ccccc1-c1csc(C(C)Nc2nc(C)nc3cc(OC)c(OC)cc23)c1, the IC50 under setting [1] was below 10 nM; the 50% inhibitory concentration (IC50) under setting [2] is below 10 nM; the IC50 under setting [3] was below 10 nM; the IC50 under setting [4] is below 10 nM; the IC50 under setting [5] was below 10 nM. The viability, T/C was 39.3% under setting [6]; 21% under setting [7]; 15.5% (second compound 0.1 µM, first compound 0.1 µM); 13.1% (second compound 0.1 µM, first compound 0.316 µM); 15.2% (second compound 0.1 µM, first compound 1 µM); 16.1% (second compound 0.1 µM, first compound 3.16 µM). Further, the viability, T/C reads like this: under setting [8], 34.4%; under setting [9], 19.7%; (second compound 0.316 µM, first compound 0.1 µM) 12.7%; (second compound 0.316 µM, first compound 0.316 µM) 12.9%; (second compound 0.316 µM, first compound 1 µM) 14.1%; (second compound 0.316 µM, first compound 3.16 µM) 14.8%. Further, the viability, T/C is, setting by setting: under setting [10], 28.9%; under setting [11], 16.3%; (second compound 1 µM, first compound 0.1 µM) 11.1%; (second compound 1 µM, first compound 0.316 µM) 11.3%; (second compound 1 µM, first compound 1 µM) 13.5%; (second compound 1 µM, first compound 3.16 µM) 12.8%. Moreover, the viability, T/C was 0.07% under setting [12]; 0.07% under setting [13]; 0.05% (second compound 3.16 µM, first compound 0.1 µM); 0.08% (second compound 3.16 µM, first compound 0.316 µM); 0.1% (second compound 3.16 µM, first compound 1 µM); 0.16% (second compound 3.16 µM, first compound 3.16 µM). Also, the viability, T/C reads like this: under setting [14], 0.11%; under setting [15], 0.09%; (second compound 10 µM, first compound 0.1 µM) 0.27%; (second compound 10 µM, first compound 0.316 µM) 0.08%; (second compound 10 µM, first compound 1 µM) 0.09%; (second compound 10 µM, first compound 3.16 µM) 0.15%.
With `CC1OCC2(CCN(c3cnc(Sc4ccnc(N)c4Cl)c(N)n3)CC2)C1N` (stereo unspecified), the viability, T/C (compound 0.0316 µM) is 86.4% [middle of 4 runs]. For the same compound, the IC50 (compound alone, run of 08/26/2021) was 696 nM [middle of 5 runs]; the IC50 (compound alone, run of 09/02/2021) is 524 nM [middle of 5 runs]; the IC50 (curve of compound) is 619 nM [middle of 5 runs].
With `CN(C)C/C=C/C(=O)Nc1cc2c(Nc3ccc(F)c(Cl)c3)ncnc2cc1O[C@H]1CCOC1`, the viability, T/C runs as follows: (compound 0.000316 µM) 101% [middle of 5 runs]; (compound 0.001 µM) 101% [middle of 5 runs]; (compound 0.00316 µM) 85.6% [middle of 5 runs]; (compound 0.01 µM) 82.7% [middle of 5 runs]; (compound 0.0316 µM) 75.9% [middle of 5 runs]; (compound 0.1 µM) 70.9% [middle of 5 runs]. For the same compound, the IC50 (curve of compound) was above 100 nM.
